Article PMC12071598, “Piperazine-Substituted Pyranopyridines Exhibit Antiproliferative Activity and Act as Inhibitors of HBV Virion Production” (International Journal of Molecular Sciences, 2025)
Values after ≈ are worked out from the molar mass of the structure shown. Read-outs that look alike come from different tables or passages of the source.

Tests used:
K562 [1] = tested on: K562; design: method as in PMID 22677031; settings: leukemic cell lines (including K562) ref 57; cited from earlier work
A549 [2] = test: Antiproliferative activity, MTT assay, A549; format: cell-based; settings: Homo sapiens, A549 lung carcinoma, 72 h
HeLa = test: Antiproliferative activity, MTT assay, HeLa; format: cell-based; settings: Homo sapiens, HeLa cervix carcinoma, 72 h
DU145 = test: Antiproliferative activity, MTT assay, DU145; format: cell-based; settings: Homo sapiens, DU-145, DU145 prostate carcinoma, 72 h
K562 [3] = test: Antiproliferative activity, MTT assay, K562; format: cell-based; settings: Homo sapiens, K562 chronic myeloid leukemia, 72 h
SH-SY5Y = test: Antiproliferative activity, crystal violet staining, SH-SY5Y; format: cell-based; settings: Homo sapiens, SH-SY5Y neuroblastoma, 72 h
HepaRG = test: Cytotoxicity towards non-tumor differentiated HepaRG cells, MTT; format: cell-based, human; settings: concentration decreasing number of viable cells by 50%; for IC50: Homo sapiens
Influenza A virus = test: microbe, parasite or virus in culture; format: cell-based, influenza A virus (H1N1)
[4] = Cytotoxicity by MTS assay in MDCK cells; format: cell-based; settings: dog, read-out: Influenza A Virus CC50
Procedure: Production of influenza A virus (H1N1) stock and its infection of MDCK cells, as well as infection of Vero E6 cells with SARS-CoV-2, were described previously. Cytotoxicity of the compounds towards MDCK and VeroE6 cells was assessed by seeding 18,000 cells/well of […] plates in 0.1 mL DMEM, treating with the compounds for 66 h, and measuring cell viability by MTS assay. As positive controls, oseltamivir and N-hydroxicytidine were used (obtained from Sigma).
The compounds were added at non-toxic concentrations in serum-free DMEM to the respective cells; one hour later, the serial 10-fold dilutions of influenza virus or SARS-CoV-2 were added in serum-free medium, and antiviral activity was determined by the reduction in the infectious titer of the virus by cytopathic action (CPE). Calculation of 50% cytotoxic concentration (CC50) and 50% effective concentration (IC50) was performed by standard methods using Microsoft Excel 5.0 and GraphPad Prism 8 (GraphPad Software Inc., Boston, MA, USA).

SARS-CoV-2 = test: microbe, parasite or virus in culture; format: cell-based; settings: for IC50: Severe acute respiratory syndrome coronavirus 2, Vero C1008, read-out: SARS-CoV-2 IC50, µM
PV1 = test: microbe, parasite or virus in culture; format: cell-based, poliovirus type 1; settings: Enterovirus C, 48 h, read-out: PV1 IC50, µM
NDV = test: microbe, parasite or virus in culture; format: cell-based, Newcastle disease virus; settings: avian paramyxovirus 1, 48 h, read-out: NDV IC50, µM
HSV-1 = test: microbe, parasite or virus in culture; format: cell-based, herpes simplex virus type 1; settings: Human alphaherpesvirus 1, 48 h, read-out: HSV-1 IC50, µM
VV = test: microbe, parasite or virus in culture; format: cell-based; settings: Orthopoxvirus vaccinia, 48 h, read-out: VV IC50, µM
hepatitis B virus (HBV) = test: microbe, parasite or virus in culture; format: cell-based; settings: Hepatitis B virus, 144 h
Nrf2/ARE pathway = test: Status of Nrf2/ARE pathway, real-time RT-PCR in A549 cells; format: cell-based; settings: A549, 10 µM, three days
Procedure: Increased ROS production is often counteracted by the induction of antioxidant enzymes, many of which are controlled by the Nrf2 transcription factor [49]. So, we analyzed if the compounds could have activated this antioxidant defense system.
A possible effect of the least-toxic 3 compounds (DO11-37, DO11-45, and DO11-47) on the status of Nrf2/ARE pathway was analyzed by quantification of expression of Nrf2 and Nrf2-dependend genes using real-time PCR analysis. A549 cells were seeded in 6-well plates at a density of 3.09 × 10^5 cells/well in DMEM-F12 media supplemented with FBS and glutamine and treated with 10 µM compounds for three days. Next, total RNA was isolated using CleanRNA standard kit (Evrogen) with subsequent treatment with DNAseI (Roche, Basel, Switzerland), and 2 µg of RNA from each sample was reverse-transcribed using random hexamer primer and mint reverse transcriptase according to manufacturer’s protocol and subjected to real-time PCR as described previously using primers listed in the Table 5.

H1299 cells [5] = test: Cell death in H1299 cells, NucView 488 caspase 3/7 and 7-AAD staining; format: cell-based; settings: H1299, 72 h; 2.5 and 5 µM DO11-46 or 5 and 10 µM DO11-48
Procedure: To investigate the mechanism of the cytotoxic action of piperazine-substituted pyranopyridines, we evaluated two compounds, namely, DO11-46 and DO11-48, that acted in submicromolar concentrations. The first step was to which type of cell death they induce. This was carried out by staining H1299 cells with 7AAD dye that stains non-viable cells (with damaged membrane) and NucView-488 dye for caspase 3/7 activity as they are activated during apoptosis. Imaging and analysis protocols for H1299 were established earlier, and cells were imaged using automated microscopy and then analyzed using Cellpose and CellProfiler.
To analyze cell death mechanisms, we stained cells NucView 488 (Biotium, Fremont, CA, USA) probe for caspase 3 and 7 activity, 1 ug/mL of non-permeable DNA dye 7-AAD (BioinnLabs, Russia), and stain for labile Fe2+ HMRhoNox-M (Lumiprobe, Russia). Cells were treated with drugs for 72 h and then stained for 30 min with 2 uM NucView 488 and 2 uM HMRhoNox-M at 37 °C. Then, cells were washed once in DMEM with low autofluorescence, then 1 ug/mL 7-AAD was added, and cells were imaged using Leica DMI8 automated microscope. […] HMRhoNox-M signal was analyzed as mean fluorescence intensity per cell. Experiments were repeated two independent times, and 4 random images were recorded each time.

A549 cells = test: Intracellular ROS assay, DCFH2-DA in A549 cells; format: cell-based; settings: A549, 10 µM, 72 h
Excerpt: As cell death is often triggered by increased production of reactive oxygen species (ROS), the next step was to evaluate if our compounds act as pro-oxidants. ROS production was accessed using cell-permeable redox sensitive DCFH2-DA dye. […] As one of the main sites of ROS production is mitochondria, we also evaluated their membrane potential during treatment with either DO11-46 or DO11-48. […] Lysosome activation often accompany late stages of apoptosis, which is in good accordance with our data on the induction of caspase3/7 activity.
Pro-oxidant activity of the compounds was studied by quantification of ROS production using a cell-permeable fluorogenic probe 2′,7′-dichlorodihydrofluorescein diacetate (DCFH2-DA). A549 cells were seeded on a 48-well plate at a density of 10,000 cells/well. Twenty-four hours later, the compounds were added to 10 µM concentration in quadruplicate, and the cells were kept for 72 h. As a positive control, A549 cells were treated with 1 mM H2O2 for 2 h prior analysis. Then, media were replaced with the fresh FBS-lacking DMEM supplemented with 25 µM DCFH2-DA. After 45 min incubation, the cells were washed 10 times with 500 µL PBS, resuspended in 200 µL PBS and transferred to a black 96-well plate. The fluorescence intensities (FLIs) were measured using CHAMELEON V microplate reader with excitation at 485 nm and emission at 535 nm.

H1299 cells [6] = test: Mitochondrial membrane potential, TMRE in H1299 cells; format: cell-based; settings: H1299, 72 h
Procedure: (§1) H1299 cells were seeded at 750 cells/well density in 96-well plate, treated with drugs for 72 h and then stained with 1 ug/mL Hoechst-33342 (Lumiprobe, Moscow, Russia), 100 nM TMRE (Lumiprobe, Russia) potential-dependent mitochondria stain, 100 nM LumiTracker LysoGreen (Lumiprobe, Russia) stain for acidic lysosomes, and 0.33 ug/mL Tubulin Tracker Deep Red (Invitrogen, USA). Cells were stained at 37 °C for 30 min with all stains, except for LysoGreen, which was added 5 min before imaging. Cells were washed once and imaged in DMEM with low autofluorescence (BioinnLabs, Rostov na Donu, Russia) with Leica DMI8 automated microscope (Wetzlar, Germany). Fluorescent imaging was performed using 10× objective with the following parameters: for Hoechst-33342 excitation 325–375 nm and emission 435–485 nm, LysoGreen 460–500/512–542 nm, TMRE 541–551/565–605 nm, and Tubulin Tracker 590–650/662–738 nm. For nuclei segmentation, we applied cyto3 model from Cellpose v3 [42] to Hoechst-33342 images, and cell cytoplasm was segmented using merged TMRE and Tubulin Tracker images with Sauvola propagation method in CellProfiler v4.2 [43]. Integrated intensity of TMRE and LysoGreen fluorescence for each cell were calculated using CellProfiler. […] Experiments were repeated two independent times, and 4 random images were recorded each time.

H1299 cells [7] = test: Labile Fe2+ levels, HMRhoNox-M in H1299 cells; format: cell-based; settings: H1299, 72 h
Procedure: To analyze cell death mechanisms, we stained cells NucView 488 (Biotium, Fremont, CA, USA) probe for caspase 3 and 7 activity, 1 ug/mL of non-permeable DNA dye 7-AAD (BioinnLabs, Russia), and stain for labile Fe2+ HMRhoNox-M (Lumiprobe, Russia). Cells were treated with drugs for 72 h and then stained for 30 min with 2 uM NucView 488 and 2 uM HMRhoNox-M at 37 °C. Then, cells were washed once in DMEM with low autofluorescence, then 1 ug/mL 7-AAD was added, and cells were imaged using Leica DMI8 automated microscope. Fluorescent imaging was performed using 10x objective with the following parameters: for Hoechst-33342 excitation 325–375 nm and emission 435–485 nm, NucView 488 460–500/512–542 nm, HMRho-Nox-M 541–551/565–605 nm, and 7-AAD 590–650/662–738 nm. Cells were segmented using images in bright field with cyto3 model from Cellpose and then processed in CellProfiler. 7-AAD and NucView 488 images were used to segment nuclei of necrotic or apoptotic cells in CellProfiler. If a cell contained nucleus stained with NucView 488, it was considered as apoptotic, and if it contained a nucleus stained only with 7-AAD, it was considered as necrotic. HMRhoNox-M signal was analyzed as mean fluorescence intensity per cell. Experiments were repeated two independent times, and 4 random images were recorded each time.

H1299 cells [8] = test: Lysosome accumulation, LysoGreen in H1299 cells; format: cell-based; settings: H1299, 72 h
Procedure: as §1

A549 [9] = settings: read-out: IC50 against A549; cited from earlier work
[10] = read-out: Extracellular HBV DNA (Δlog10)
[11] = read-out: Intracellular Total HBV RNA (Δlog10)

| SMILES | IC50 (A549 [2]) | IC50 (HeLa) | IC50 (DU145) | IC50 (K562 [3]) | IC50 (SH-SY5Y) | IC50 (HepaRG) | Influenza A Virus Δlgmax (Influenza A virus) | CC50 at 66 h [4] | SARS-CoV-2 Δlgmax (SARS-CoV-2) | IC50 (SARS-CoV-2) | IC50 (PV1) | IC50 (NDV) | IC50 (HSV-1) | IC50 (VV) | log reduction at 1 µM (hepatitis B virus (HBV); [10]) | log reduction at 10 µM (hepatitis B virus (HBV); [10]) | log reduction at 1 µM (hepatitis B virus (HBV); [11]) | log reduction at 10 µM (hepatitis B virus (HBV); [11]) | other results |
| --- | --- | --- | --- | --- | --- | --- | --- | --- | --- | --- | --- | --- | --- | --- | --- | --- | --- | --- | --- |
| CC(=O)C(=NNc1ccc2c(=O)cc(-c3ccccc3)oc2c1)N1CCCCC1 [11a, 7-[2-(2-oxo-1-(piperidin-1-yl)propylidene)hydrazinyl]-2-phenyl-4H-chromen-4-one] | – | – | – | – | – | – | – | – | – | – | – | – | – | – | – | – | – | – | IC50 against K562 (K562 [1]): 2.56 ± 0.57 µg/mL (≈ 6.57 µM) |
| COc1cccc(NC(=O)CSc2nc(N3CCNCC3)c3c(c2C#N)CC(C)(C)OC3)c1 [DO11-47, 2-[(5-Cyano-3,3-dimethyl-8-piperazin-1-yl-3,4-dihydro-1H-pyrano[3,4-c]pyridin-6-yl)thio]-N-(3-methoxyphenyl)acetamide] | 67.8 ± 5.8 µM | 39.3 ± 16.9 µM | 10 ± 2.9 µM | 12.8 ± 4.2 µM | 36.7 ± 18.2 µM | 437 ± 14.8 µM | 0 | 810 µM | 0 | > 38 µM | > 60 µM | > 60 µM | > 60 µM | > 60 µM | < 0.5 | < 0.5 | < 0.5 | < 0.5 | IC50 (µM) HepaRG (HepaRG): almost non-toxic; expression of Nrf2, NQO1, HO-1, GCLC, and GCLM genes (Nrf2/ARE pathway): increase was not statistically significant |
| COc1ccccc1NC(=O)CSc1nc(N2CCNCC2)c2c(c1C#N)CC(C)(C)OC2 [DO11-48, 2-[(5-Cyano-3,3-dimethyl-8-piperazin-1-yl-3,4-dihydro-1H-pyrano[3,4-c]pyridin-6-yl)thio]-N-(2-methoxyphenyl)acetamide] | 3.5 ± 0.7 µM | 2.2 ± 0.6 µM | 2.5 ± 1.2 µM | 0.5 ± 0.1 µM | 18.1 ± 5.1 µM | 10.9 ± 1.6 µM | 0 | 830 µM | 0 | > 10 µM | > 3.75 µM | > 3.75 µM | > 3.75 µM | > 3.75 µM | < 0.5 | < 0.5 | < 0.5 | < 0.5 | number of apoptotic and necrotic cells (H1299 cells [5]): increased the number of apoptotic and necrotic cells; ROS generation (A549 cells): significantly increased ROS generation; mitochondrial membrane potential (H1299 cells [6]): neither of them caused mitochondrial dysfunction; levels of Fe2+ ions (H1299 cells [7]): did not affect; accumulation of lysosomes (H1299 cells [8]): induced the accumulation of lysosomes |
| CC(=O)CN1CCN(c2ccc(C(=O)C=Cc3ccc(N(C)C)cc3)cc2)CC1 [dimethylamino-4’-[N-(2-oxopropyl)-1-piperazinyl]chalcone] | – | – | – | – | – | – | – | – | – | – | – | – | – | – | – | – | – | – | IC50 (A549 [9]): 0.19 µM |
